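Dose response: 5 concentrations. Exposure: 48 h. Format: 96-well plates. Endpoint: linear interpolation; highest concentration if not reached. At the GI50, growth is halved. TGI: concentration producing complete growth inhibition.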
Assays:
Assay in all cases: growth of human tumour cells (NCI), 48 h
SR leukemia = tested on: SR leukemia
MOLT-4 leukemia = tested on: MOLT-4 leukemia
COLO 205 colon = tested on: COLO 205 colon
IGROV1 ovarian = tested on: IGROV1 ovarian
EKVX NSCLC = tested on: EKVX NSCLC
HOP-62 NSCLC = tested on: HOP-62 NSCLC
M14 melanoma = tested on: M14 melanoma
HCT-116 colon = tested on: HCT-116 colon
A498 renal = tested on: A498 renal
SK-OV-3 ovarian = tested on: SK-OV-3 ovarian
786-0 renal = tested on: 786-0 renal
MALME-3M melanoma = tested on: MALME-3M melanoma
SK-MEL-28 melanoma = tested on: SK-MEL-28 melanoma
SNB-19 CNS = tested on: SNB-19 CNS
CCRF-CEM leukemia = tested on: CCRF-CEM leukemia
SF-295 CNS = tested on: SF-295 CNS
HL-60(TB) leukemia = tested on: HL-60(TB) leukemia
RPMI-8226 leukemia = tested on: RPMI-8226 leukemia
SK-MEL-2 melanoma = tested on: SK-MEL-2 melanoma
K-562 leukemia = tested on: K-562 leukemia
TK-10 renal = tested on: TK-10 renal
NCI/ADR-RES ovarian = tested on: NCI/ADR-RES ovarian
SF-539 CNS = tested on: SF-539 CNS
NCI-H23 lung = tested on: NCI-H23 lung
HCT-15 colon = tested on: HCT-15 colon
MCF7 breast = tested on: MCF7 breast
BT-549 breast = tested on: BT-549 breast
A549 NSCLC = tested on: A549 NSCLC
T-47D breast = tested on: T-47D breast

COc1cccc(-n2ncc3c(N/N=C/c4ccc(F)cc4)ncnc32)c1
GI50 (SR leukemia): > 25 µM | TGI (SR leukemia): > 25 µM | GI50 (MOLT-4 leukemia): > 25 µM | TGI (MOLT-4 leukemia): > 25 µM | GI50 (COLO 205 colon): > 25 µM | TGI (COLO 205 colon): > 25 µM | GI50 (IGROV1 ovarian): > 25 µM | TGI (IGROV1 ovarian): > 25 µM | GI50 (EKVX NSCLC): > 25 µM | TGI (EKVX NSCLC): > 25 µM | GI50 (HOP-62 NSCLC): 16.7 µM | TGI (HOP-62 NSCLC): > 25 µM | GI50 (M14 melanoma): > 23.6 µM | TGI (M14 melanoma): > 25 µM | GI50 (HCT-116 colon): 10.2 µM | TGI (HCT-116 colon): > 25 µM | GI50 (A498 renal): > 16.1 µM | TGI (A498 renal): > 25 µM | GI50 (SK-OV-3 ovarian): 13.6 µM | TGI (SK-OV-3 ovarian): > 25 µM | GI50 (786-0 renal): 11.8 µM | TGI (786-0 renal): > 19.5 µM | GI50 (MALME-3M melanoma): 11.3 µM | TGI (MALME-3M melanoma): > 25 µM | GI50 (SK-MEL-28 melanoma): > 25 µM | TGI (SK-MEL-28 melanoma): > 25 µM | GI50 (SNB-19 CNS): 24.5 µM | TGI (SNB-19 CNS): > 25 µM | GI50 (CCRF-CEM leukemia): > 25 µM | TGI (CCRF-CEM leukemia): > 25 µM | GI50 (SF-295 CNS): > 25 µM | TGI (SF-295 CNS): > 25 µM | GI50 (HL-60(TB) leukemia): > 25 µM | TGI (HL-60(TB) leukemia): > 25 µM | GI50 (RPMI-8226 leukemia): > 25 µM | TGI (RPMI-8226 leukemia): > 25 µM | GI50 (SK-MEL-2 melanoma): > 25 µM | TGI (SK-MEL-2 melanoma): > 25 µM | GI50 (K-562 leukemia): > 25 µM | TGI (K-562 leukemia): > 25 µM | GI50 (TK-10 renal): 12.4 µM | TGI (TK-10 renal): > 23.3 µM | GI50 (NCI/ADR-RES ovarian): 14.2 µM | TGI (NCI/ADR-RES ovarian): > 25 µM | GI50 (SF-539 CNS): 13.9 µM | TGI (SF-539 CNS): > 25 µM | GI50 (NCI-H23 lung): > 20.1 µM | TGI (NCI-H23 lung): > 25 µM | GI50 (HCT-15 colon): > 25 µM | TGI (HCT-15 colon): > 25 µM | GI50 (MCF7 breast): > 17 µM | TGI (MCF7 breast): > 25 µM | GI50 (BT-549 breast): > 25 µM | TGI (BT-549 breast): > 25 µM | GI50 (A549 NSCLC): 11.6 µM | TGI (A549 NSCLC): > 25 µM | GI50 (T-47D breast): 11.6 µM | TGI (T-47D breast): > 25 µM

Reference: PubChem BioAssay (NCI)
